The source of these data is EP0345153A1, “Affinity markers for hormonal steroid receptors, their use in hormonoradio therapy and as imaging agents of hormone-dependent cancers” (LA REGION WALLONNE, priority 1988, dated 1989).

Assay [1] relates to récepteur de l'oestradiol. In words: Relative binding affinity (A.R.L) for the estradiol receptor. Particulars: vis-à-vis du récepteur de l'oestradiol. An excerpt: Dans cette optique, des composés tels que 7 et 8 sont préparés (9b). Ils portent des petits clusters en 17a-et couvrent une gamme de valeurs de PKR+ de -6 pour 7 à +3 pour 8.
Assay [2] addresses T1, Récepteur de la progestérone (Homo sapiens, UniProt P06401).
T1 sequence (P06401 1-933): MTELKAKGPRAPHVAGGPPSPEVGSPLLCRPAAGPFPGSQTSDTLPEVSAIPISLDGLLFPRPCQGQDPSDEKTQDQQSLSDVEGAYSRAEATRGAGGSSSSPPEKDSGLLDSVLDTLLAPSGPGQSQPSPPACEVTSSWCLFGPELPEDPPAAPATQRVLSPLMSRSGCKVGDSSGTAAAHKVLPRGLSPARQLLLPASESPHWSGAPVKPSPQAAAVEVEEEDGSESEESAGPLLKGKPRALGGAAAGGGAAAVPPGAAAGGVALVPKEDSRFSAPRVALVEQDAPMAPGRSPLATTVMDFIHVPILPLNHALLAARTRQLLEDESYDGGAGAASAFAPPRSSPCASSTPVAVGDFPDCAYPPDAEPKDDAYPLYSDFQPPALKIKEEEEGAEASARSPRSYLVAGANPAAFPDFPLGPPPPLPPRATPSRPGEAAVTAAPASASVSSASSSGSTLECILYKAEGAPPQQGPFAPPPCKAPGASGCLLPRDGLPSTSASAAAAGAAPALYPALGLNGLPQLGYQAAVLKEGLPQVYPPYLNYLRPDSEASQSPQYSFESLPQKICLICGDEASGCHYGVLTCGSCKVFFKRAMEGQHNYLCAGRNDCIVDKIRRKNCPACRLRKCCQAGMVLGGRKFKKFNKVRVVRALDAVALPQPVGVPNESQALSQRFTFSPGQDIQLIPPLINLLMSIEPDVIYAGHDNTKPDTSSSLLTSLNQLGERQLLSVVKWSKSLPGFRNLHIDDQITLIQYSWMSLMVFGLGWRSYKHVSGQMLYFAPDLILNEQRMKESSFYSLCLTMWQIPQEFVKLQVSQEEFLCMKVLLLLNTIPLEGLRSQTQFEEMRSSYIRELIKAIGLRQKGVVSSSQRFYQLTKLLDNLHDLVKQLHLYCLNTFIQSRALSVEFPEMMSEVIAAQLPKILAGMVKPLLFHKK
To be noted: photochemically activated, after 1H; cited from earlier work.

The test system of assay [3] is récepteur de l'oestradiol. To be noted: cited from earlier work.
Assay [4] deals with T2, récepteurs nucléaires de l'oestradiol d'utérus de brebis (Ovis aries, UniProt A0ACI6Q0N8).
T2 sequence (A0ACI6Q0N8 1-596): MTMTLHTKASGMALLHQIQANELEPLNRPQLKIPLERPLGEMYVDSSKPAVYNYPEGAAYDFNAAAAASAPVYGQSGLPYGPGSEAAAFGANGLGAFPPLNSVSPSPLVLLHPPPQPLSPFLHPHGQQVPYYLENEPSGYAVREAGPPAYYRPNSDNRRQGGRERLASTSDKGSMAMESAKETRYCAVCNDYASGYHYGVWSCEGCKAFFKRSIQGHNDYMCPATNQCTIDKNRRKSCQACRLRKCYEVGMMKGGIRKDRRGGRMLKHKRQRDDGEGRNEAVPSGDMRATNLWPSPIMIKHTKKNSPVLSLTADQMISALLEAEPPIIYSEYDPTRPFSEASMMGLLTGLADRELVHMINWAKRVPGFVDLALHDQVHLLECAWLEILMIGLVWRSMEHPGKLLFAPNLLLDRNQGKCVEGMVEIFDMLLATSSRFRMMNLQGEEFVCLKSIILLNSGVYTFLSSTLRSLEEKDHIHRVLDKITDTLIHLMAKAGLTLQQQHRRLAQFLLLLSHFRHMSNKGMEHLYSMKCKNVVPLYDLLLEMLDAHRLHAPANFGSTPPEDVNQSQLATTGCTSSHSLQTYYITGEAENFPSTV
In words: Irreversible binding to nuclear estradiol receptors in ewe uterus nuclear extract (exchange with 10 nM tritiated estradiol, protamine sulfate precipitation). How it is done:
La nature irréversible de l'intéraction du composé 12 avec le récepteur a été démontrée en incubant un extrait nucléaire d'utérus de brebis en présence de molarités variables de complexe 12. A la fin du temps . d'incubation, l'hormone libre, présente dans le milieu, est éliminée par traitement au charbon dextran. Les fractions d'extrait nucléaire sont ensuite incubées à 20°C pendant 17 h. en présence de 10 nM d'oestradiol tritié. La fraction d'oestradiol tritiée liée (qui représente la quantité de récepteur qui n'a pas été marquée de façon covalente) est déterminée après précipitation des fractions liées au sulfate de protamine (9b). Les résultats sont rassemblés dans le tableau suivant

In assay [5] the target is T3, Récepteur des glucocorticoîdes (Homo sapiens, UniProt P04150).
T3 sequence (P04150 1-777): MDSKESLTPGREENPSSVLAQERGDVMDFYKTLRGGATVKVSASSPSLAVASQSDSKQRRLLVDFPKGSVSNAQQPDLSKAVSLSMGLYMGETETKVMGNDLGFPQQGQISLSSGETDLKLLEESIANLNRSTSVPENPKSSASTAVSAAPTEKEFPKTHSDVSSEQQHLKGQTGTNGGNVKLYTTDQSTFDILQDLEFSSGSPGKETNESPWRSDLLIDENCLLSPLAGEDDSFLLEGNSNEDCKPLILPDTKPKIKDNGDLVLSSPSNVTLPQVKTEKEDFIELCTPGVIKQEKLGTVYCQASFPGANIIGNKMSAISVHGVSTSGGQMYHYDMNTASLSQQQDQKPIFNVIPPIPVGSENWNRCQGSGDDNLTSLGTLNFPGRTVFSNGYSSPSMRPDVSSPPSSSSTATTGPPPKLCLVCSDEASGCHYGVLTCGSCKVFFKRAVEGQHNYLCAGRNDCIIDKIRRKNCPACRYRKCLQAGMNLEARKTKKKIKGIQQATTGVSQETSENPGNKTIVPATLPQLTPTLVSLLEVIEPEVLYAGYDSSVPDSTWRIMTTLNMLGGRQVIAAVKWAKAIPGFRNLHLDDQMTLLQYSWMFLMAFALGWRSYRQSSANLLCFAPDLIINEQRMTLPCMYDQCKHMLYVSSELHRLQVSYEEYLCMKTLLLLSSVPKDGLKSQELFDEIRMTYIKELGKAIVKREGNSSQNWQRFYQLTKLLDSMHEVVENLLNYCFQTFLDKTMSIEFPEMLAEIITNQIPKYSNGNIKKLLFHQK
To be noted: whole cells; cited from earlier work.

In the case of `C[C@]12CC[C@@H]3c4ccc(O)cc4CC[C@H]3[C@@H]1CC[C@@]2(O)c1ccccc1` [[17α-C6H5]-17β-oestradiol], the “affinité relative de liaison (A.R.L)” value in assay [1] is 25%.
As for `CCC(=O)[C@@]1(C)CC[C@H]2[C@@H]3CCC4=CC(=O)CCC4=C3CC[C@@]21C` [compound 1, R5020], in assay [2], the Marquage is recorded as 15%.
For the compound `C[C@]12C[C@H](CCl)[C@@H]3c4ccc(O)cc4CC[C@H]3[C@@H]1CC[C@@H]2O` [compound 6, chlorométhyl 11β-oestradiol], the “marqueur d'affinité du récepteur de l'oestradiol” value in assay [3] is “n'en étant pas un”.
With `CC12CCC3c4ccc(O)cc4CCC3C1CCC2(O)[c-]1cccc1.[Fe+2].c1cc[cH-]c1` (stereo not drawn) [compound 12, 17α-Ferrocényl-17β-oestradiol], the “% d'inhibition de la liaison de l'oestradiol” value was found to be 50% in assay [4] (incubation molarity 2 nM), 71% in assay [4] (incubation molarity 5 nM) and 81% in assay [4] (incubation molarity 10 nM). In addition, the “affinité relative de liaison (A.R.L)” value in assay [1] came out at 13%.
Dexaméthasone-mésylate-21 [compound 2]: the “liaison non-spécifique” value in assay [5] is recorded as “Taux élevé de liaison non-spécifique”.
For the compound azide de l'hexestrol [compound 3], in assay [3] (photochemical route), the “efficacité d'inactivation” value was 10-15%.
